Reference: patent publication US10940179B2, “Therapeutic compositions for the treatment of dry eye disease” (SCHEPENS EYE RESEARCH INSTITUTE, priority 2010, dated 2021)

Legend:
DED mice = experiment: Corneal fluorescein staining / clinical signs in experimental dry eye murine model; type: in vivo, mouse; conditions: for Clinical signs of DED / disease severity: anti-VEGF-C-treated vs untreated (saline) group, daily i.p.
Description: (§1) Eight to ten week-old female C57BLI6 mice (Charles River Laboratory, Wilmington, Mass.) were used in accordance with the standards in the ARVO Statement for the Use of Animals in Ophthalmic and Vision Research. The research protocol was approved by the Schepens Eye Research Institute Animal Care and Use Committee. Dry eye was induced in murine eyes using a Controlled Environment Chamber (CEC) which exposes the mice to high-flow desiccated air. To achieve maximum ocular surface dryness, the conditions in CEC were supplemented with topical application of 1% atropine sulfate (Falcon Pharma, Fort Worth, Tex.) twice for the first 48 hours and subcutaneous injections of 0.1 ml of 5 mg/ml of scopolamine hydrobromide (Sigma-Aldrich, St. Louis, Mo.) three times a day, for the entire duration of the experiment.
(§2) Anti-VEGF-C antibodies (VGX-100; Vegenics Limited, Australia) were administered intraperitonealy daily from day 1 to day 10 to DED mice. Mice were assessed clinically using corneal fluorescent staining. Tissues from cornea, conjunctiva and draining lymph nodes were examined for cellular and molecular pathological changes.
Corneal lymphatics play an important role in mediating the corneal inflammation in dry eyes. Experiments: To validate this, inhibition of corneal neolymphangiogenesis was performed in a well characterized mouse model of DED described above. To see if inhibition of corneal neolymphangiogenesis could decrease ocular surface inflammation, anti-VEGF-C antibodies were administered i.p. daily from day −1 to day 10 to DED mice and assessed clinically using corneal fluorescein staining.
Methods (as described previously): Induction of Dry Eye Disease. Experimental Dry Eye Murine Model. Assessment of Corneal Surface: Corneal Fluorescein Staining. Immunohistochemistry: Monocyte/macrophage marker—CD11b; Pan-endothelial marker—CD31; Lymphatic endothelial marker—LYVE-1; Blood vessels: CD31^hi/LYVE-1; Lymph vessels: CD31^lo/LYVE-l^hi. Morphometry of Lymphangiogenesis: Automated image analysis program written using Mat lab. Lymphatic Area (LA)—total surface area of the lymphatic vessels when projected into the plane of the image. Lymphatic Caliber (LC)—measure of the diameters of the lymphatic vessels.
Anti-VEGF-C antibody and treatment regimen. Experimental design: Three groups: Normal, DE group treated with IP normal Saline (Untreated) and DE group treated with anti-VEGF-C antibody (VGX-100; a gift from Vegenics, Australia). Daily IP application of anti-VEGF-C antibody/Normal saline from day −1 to day 13. Dose: […] (20 mg/kg) in […] of Normal Saline.

[1] = test system: IL-1α, IL-1β, IL-6, IL-17; experiment: Real-time PCR of proinflammatory cytokines in conjunctiva of DED mice; type: in vivo, mouse
Description: as §1
(§3) Five mice (10 eyes) were included in each group. Two corneas were pooled together to equal as one sample and stored at −80° C. in Trizol (Invitrogen, Carlsbad, Calif.; catalog No. 15596026) until future use. Total RNA was isolated from these corneas using the RNeasy microkit (Qiagen, Valencia, Calif.; catalog No. 74004). Equal amounts of RNA were used to synthesize cDNA using SuperScript™ III Reverse Trancriptase (Invitrogen, Carlsbad, Calif.; catalog No. 18080) according to the manufacturer's recommendations. Real-Time PCR was performed using FAM-MGB dye labeled predesigned primers (Applied Biosystem, Foster City, Calif.) for GAPDH (assay ID.Mm999999 15_gl), VEGF-A (Mm00437304_ml), VEGF-C (Mrn00437313_ml), VEGF-D (Mm00438965_ml), VEGFR-2 (Mm00440099_ml), VEGFR-3 (Mm00433337_ml). 2.5 μl of cDNA was loaded in each well and assays were performed in duplicate. The GAPDH gene was used as the endogenous reference for each reaction. The results were normalized by the cycle threshold (CT) of GAPDH and the relative mRNA level in the normal mice was used as the normalized control.
as §2
(§4) Real time PCR was performed to quantify expression of different VEGF growth factors (VEGF-A, VEGF-C, VEGF-D) and their receptors (VEGFR-2, VEGFR-3) in the cornea at days 6, 10 and 14 (FIG. 8) and to determine the levels of proinflammatory cytokines.

[2] = test system: IL-17 (Th17 cells) and IFN-γ (Th1 cells); experiment: Real-time PCR of inflammatory cytokines in draining lymph nodes of DED mice; type: in vivo, mouse; conditions: treated vs untreated DED mice
Description: as §1
Five mice (10 eyes) were included in each group. […]
(§5) Anti-VEGF-C antibodies (VGX-100; Vegenics Limited, Australia) were administered intraperitonealy daily from day 1 to day 10 to DED mice. Mice were assessed clinically using corneal fluorescent staining. […]
as §4

CD11b+ cells = experiment: Enumeration of CD11b+ cells in DED corneas (immunohistochemistry); type: in vivo, mouse
Description: (§6) Eight to ten week-old female C57BLI6 mice (Charles River Laboratory, Wilmington, Mass.) were used in accordance with the standards in the ARVO Statement for the Use of Animals in Ophthalmic and Vision Research. The research protocol was approved by the Schepens Eye Research Institute Animal Care and Use Committee. Dry eye was induced in murine eyes using a Controlled Environment Chamber (CEC) which exposes the mice to high-flow desiccated air. […]
(§7) Freshly excised corneas were washed in PBS, fixed in acetone for 15 minutes and then double stained with CD31 and LYVE-1 as described previously. To analyze infiltration of CD11b^+/LYVE-1 cells, corneas from three mice from each group were taken and cells were counted in 5-6 areas in the periphery ([…] area from the limbus) of each cornea in a masked fashion, using epifluorescence microscope (model E800; Nikon, Melville, N.Y.) at 40× magnification. The mean number of cells was obtained by averaging the total number of cells in all the areas studied and the result was expressed as the number of positive cells per mm^2.
as §5

corneal lymphatics = experiment: Corneal lymphangiogenesis in DED mice (CD31/LYVE-1 staining, morphometry); set-up: species or system mouse; conditions: in vivo blockade of VEGF-C
Description: as §6, §7
Morphology of lymphatics was analyzed using an automated image analysis program written with Matlab (The Mathworks, Inc., Natick, Mass.). […] The resultant isolated lymphatic vessels were analyzed morphologically using two metrices, Lymphatic Area (LA) and Lymphatic Caliber (LC). […]

VEGF-C, -D, R3 = experiment: Real-time PCR of pro-lymphangiogenic growth factors and receptors in DE corneas; type: in vivo, mouse; conditions: DED mice, VEGF-C blockade
Description: as §1
as §3, with “The results were normalized by the cycle threshold (CT) of GAPDH and the relative mRNA level in the normal mice was used as the normalized control.” left out
as §4

[3] = DED mice, VEGF-C blockade (summary)

In the case of “VGX-100: human anti-VEGF-C monoclonal antibody produced by hybridoma ATCC PTA-4095; heavy/light chains SEQ ID NO: 34/35; from Vegenics”, the Corneal epitheliopathy (DED mice; VEGF-C blockade) is reported as “decrease”, the “Clinical signs of DED / disease severity” value (DED mice) is reported as “ameliorates clinical signs of DED” and the “Clinical signs of DED / disease severity” value (DED mice; listed as anti-VEGF-C) is reported as “significant decrease in disease severity”. The “Clinical signs of DED / disease severity” value (DED mice; listed as anti-VEGF-C Ab) was “ameliorates clinical signs of DED”, the “Corneal fluorescein staining (CFS) score” value (DED mice; days 5, 9 and 13, vs untreated group, daily IP 400 µg (20 mg/kg) in 100 µl saline) was “significantly decreased” and the “mRNA expression levels of proinflammatory cytokines in the conjunctiva” value [1, 3] was “decrease”. The “IL-1α expression in conjunctiva (real-time PCR)” value ([1]; treated vs untreated DED mice) was “significantly decreased expression”, the “IL-1β expression in conjunctiva (real-time PCR)” value ([1]; treated vs untreated DED mice) was “significantly decreased expression” and the “IL-6 expression in conjunctiva (real-time PCR)” value ([1]; treated vs untreated DED mice) was “significantly decreased expression”. For the same substance, the “IL-17 expression in conjunctiva (real-time PCR)” value ([1]; treated vs untreated DED mice) was “significantly decreased expression”, the “Induction of T-cell mediated autoimmune response in draining lymph nodes (IL-17, IFN-γ by real-time PCR)” value [2] was “significantly decreased induction” and the “Decrease of infiltration of CD11b+ cells in DED corneas” value (CD11b+ cells; DED corneas, day 14) was 30%. For the same substance, the “Corneal infiltration of CD11b+ cells” value (CD11b+ cells; [3]) was “decrease”, the “Corneal lymphangiogenesis / lymphatic growth” value (corneal lymphatics) was “suppresses corneallymphangiogenesis” and the “Corneal lymphangiogenesis / lymphatic growth” value (corneal lymphatics; listed as anti-VEGF-C) was “suppression of lymphatic growth”. For the same substance, the “Expression of VEGF-C in DE corneas” value (VEGF-C, -D, R3) was “decrease”, the “Expression of VEGF-D in DE corneas” value (VEGF-C, -D, R3) was “decrease” and the “Expression of VEGFR-3 (R3) in DE corneas” value (VEGF-C, -D, R3) was “decrease”.
